# Tested on: SARS-CoV-2
# Assay: Antiviral activity against SARS-CoV-2 USA-WA1/2020 infected in Vero E6 cells assessed as reduction in viral plaque formation incubated for 3 days by plaque reduction neutralization assay
# Format: functional, organism-based
# Conditions: Severe acute respiratory syndrome coronavirus 2, USA-WA1/2020, Vero C1008, 72 h
row,Structure (SMILES),EC50
1,O=C[C@H](C[C@@H]1CCNC1=O)NC(=O)C1CC2(CCCCC2)CN1C(=O)OCc1ccccc1 (stereo partly drawn),370 nM
2,O=C[C@H](C[C@@H]1CCNC1=O)NC(=O)C1CC2(CCCC2)CN1C(=O)OCc1ccccc1 (stereo partly drawn),370 nM
3,CC1(C)[C@@H]2[C@@H](C(=O)N[C@H](C=O)C[C@@H]3CCNC3=O)N(C(=O)OCc3ccccc3)C[C@@H]21,1500 nM

# From ChEMBL document CHEMBL5360647, “A Systematic Survey of Reversibly Covalent Dipeptidyl Inhibitors of the SARS-CoV-2 Main Protease” (J Med Chem, 2023)
